IC50 data for 4 compounds are collected here from patent US11919918B2, “P2X3 andor P2X2/3 receptor antagonist, pharmaceutical composition comprising same, and use thereof” (BEIJING TIDE PHARMACEUTICAL CO., LTD., priority 2017, dated 2024).

One test deals with human P2X3 receptor (Homo sapiens (Human), UniProt P56373). The test can be described thus: Inhibitory activity on human P2X3 receptor (calcium 6 dye FLIPR assay, agonist α,β-MeATP). The following applies: HEK293-P2X3 stably expressing cell line, FLIPR Tetra. Format: cell-based.
A further test deals with human P2X2/3 receptor (Homo sapiens (Human), UniProt P56373+Q9UBL9). In words: Inhibitory activity on human P2X2/3 receptor (calcium 6 dye FLIPR assay, agonist α,β-MeATP). In kind it is cell-based. The following applies: HEK293-P2X2/3 stably expressing cell line, FLIPR Tetra.
Sequence of human P2X2/3 receptor (Q9UBL9 whole entry): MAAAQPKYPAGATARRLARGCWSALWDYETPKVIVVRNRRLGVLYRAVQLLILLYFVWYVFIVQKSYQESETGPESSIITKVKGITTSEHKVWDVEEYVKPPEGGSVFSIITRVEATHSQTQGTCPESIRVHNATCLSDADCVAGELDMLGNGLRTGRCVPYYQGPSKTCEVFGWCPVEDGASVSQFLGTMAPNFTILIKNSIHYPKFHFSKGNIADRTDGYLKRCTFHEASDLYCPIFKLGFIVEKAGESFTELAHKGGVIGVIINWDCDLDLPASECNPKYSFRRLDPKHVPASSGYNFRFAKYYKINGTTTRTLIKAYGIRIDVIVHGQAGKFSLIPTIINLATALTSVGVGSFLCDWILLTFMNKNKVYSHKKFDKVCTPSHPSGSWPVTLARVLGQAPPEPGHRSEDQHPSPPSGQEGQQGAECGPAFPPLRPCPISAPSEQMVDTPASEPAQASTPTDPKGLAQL
Sequence of human P2X2/3 receptor (P56373 whole entry): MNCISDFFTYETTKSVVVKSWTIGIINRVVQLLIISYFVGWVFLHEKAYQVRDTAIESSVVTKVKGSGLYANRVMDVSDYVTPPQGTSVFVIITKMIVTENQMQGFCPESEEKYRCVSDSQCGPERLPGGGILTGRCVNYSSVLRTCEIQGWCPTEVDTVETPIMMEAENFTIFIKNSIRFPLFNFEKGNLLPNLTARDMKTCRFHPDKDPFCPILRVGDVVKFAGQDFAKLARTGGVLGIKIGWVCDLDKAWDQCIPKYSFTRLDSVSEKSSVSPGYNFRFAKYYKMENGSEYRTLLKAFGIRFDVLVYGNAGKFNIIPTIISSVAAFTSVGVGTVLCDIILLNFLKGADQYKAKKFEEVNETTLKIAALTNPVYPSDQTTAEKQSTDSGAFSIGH

Sequence of human P2X3 receptor (P56373 whole entry): as above

Usually IC50 stands for the point on the concentration scale where inhibition reaches its midpoint. Consider `CC(C)c1cnc(Br)cc1Oc1cnc(NC(CO)CO)nc1N` [Compound C111, 2-((4-amino-5-((2-bromo-5-isopropyl-pyridin-4-yl)oxy)pyrimidin-2-yl)amino) propane-1,3-diol], for which the IC50 at human P2X3 receptor amounted to 104 nM; on human P2X2/3 receptor it was 129 nM.

For `C=C(C)c1cnc(NCC)cc1Oc1cnc(N)nc1N` [Compound C214, 5-((2-(ethylamino)-5-(prop-1-en-2-yl)pyridin-4-yl)oxy)pyrimidine-2,4-diamine], the IC50 came to 44 nM on human P2X3 receptor and 72 nM at human P2X2/3 receptor.

For `C=Cc1cc(Sc2cnc(N)nc2N)c(C(C)C)cn1` [Compound C95, 5-((5-isopropyl-2-vinylpyridine-4-yl)thio)pyrimidine-2,4-diamine], the results for the IC50 on human P2X3 receptor and at human P2X2/3 receptor were 138 nM and 163 nM, respectively.

With `CC(C)c1cnc(-c2ccccc2)cc1Oc1cnc(N)nc1N` [Compound C13], the IC50 at human P2X3 receptor was 355 nM; at human P2X2/3 receptor, 599 nM.
